Data: patent publication US10280447B2, “Substituted imidazo[1,2-A]pyrazines tethered to energy acceptors” (PROMEGA CORPORATION, priority 2016, dated 2019)

System: NanoLuc® enzyme and NanoLuc-Halotag fusion protein enzyme
Assay: Spectral profile of the coelenterazine analogue/luciferase reaction (Tecan-M1000, 3 nm increments)
Assay type: biochemical, Oplophorus gracilirostris
Settings: NanoGlo® buffer
Method: FIGS. 2A-2D show the spectral profiles of varying concentrations of TAK-0043 and enzyme in NanoGlo® buffer. […] TAK-0043 was tested as a potential coelenterazine analogue capable of shifting the emission spectrum in a coelenterazine/luciferase reaction. A dilution series of purified NanoLuc® enzyme (Promega E499a) and NanoLuc-Halotag fusion protein enzyme was prepared in OptiMEM+0.1% FBS starting 2 μM. 50 ul of the 2 μM enzyme dilutions were combined with 50 μl of 2 μM and 20 μM TAK-0043 in NanoGlo® buffer in triplicate. These samples were immediately read on the Tecan-M1000 using 3 nm increments to obtain spectral profiles. Another spectral measurement was completed by combining 50 μl of 6.6 μM NanoLuc® enzyme and NanoLuc-Halotag fusion protein enzyme in OptiMEM+0.1% FBS with 50 μl of 2 μM TAK-0043 in NanoGlo® buffer in triplicate. This sample was also read on the Tecan M-1000 using […] increments.

## O=C(NCCCCCCOc1cccc(Cc2nc3c(Cc4ccccc4)[nH]c(-c4ccccc4)cn-3c2=O)c1)c1ccc(C(=O)O)c(C2=c3cc4c5c(c3Oc3c2cc2c6c3CCCN6CCCC2)CCC[N+]=5CCCC4)c1 [TAK-0043]
TAK-0043 with NanoLuc® and NanoLuc-HaloTag fusion enzyme
  peak for coelenterazine emission at 460 nm: nearly invisible
All concentrations of TAK-0043 (1 or 10 uM) and enzyme (1 or 3.3 uM) used
  emitted photons shifted to NCT dye emission: > 95%
All concentrations of TAK-0043 and enzyme used
  emission maximum: 618 nm
